According to US8101760B2, “Glucocorticoid receptor modulator and methods of use” (Eli Lilly and Company, priority 2007, dated 2012):

Target: T1, human PR (progesterone receptor) (Homo sapiens, UniProt P06401)
T1 construct: expressed in transfected cells; host or cells: HEK293 (lysate, '293-PR lysate')
T1 sequence (P06401 1-933): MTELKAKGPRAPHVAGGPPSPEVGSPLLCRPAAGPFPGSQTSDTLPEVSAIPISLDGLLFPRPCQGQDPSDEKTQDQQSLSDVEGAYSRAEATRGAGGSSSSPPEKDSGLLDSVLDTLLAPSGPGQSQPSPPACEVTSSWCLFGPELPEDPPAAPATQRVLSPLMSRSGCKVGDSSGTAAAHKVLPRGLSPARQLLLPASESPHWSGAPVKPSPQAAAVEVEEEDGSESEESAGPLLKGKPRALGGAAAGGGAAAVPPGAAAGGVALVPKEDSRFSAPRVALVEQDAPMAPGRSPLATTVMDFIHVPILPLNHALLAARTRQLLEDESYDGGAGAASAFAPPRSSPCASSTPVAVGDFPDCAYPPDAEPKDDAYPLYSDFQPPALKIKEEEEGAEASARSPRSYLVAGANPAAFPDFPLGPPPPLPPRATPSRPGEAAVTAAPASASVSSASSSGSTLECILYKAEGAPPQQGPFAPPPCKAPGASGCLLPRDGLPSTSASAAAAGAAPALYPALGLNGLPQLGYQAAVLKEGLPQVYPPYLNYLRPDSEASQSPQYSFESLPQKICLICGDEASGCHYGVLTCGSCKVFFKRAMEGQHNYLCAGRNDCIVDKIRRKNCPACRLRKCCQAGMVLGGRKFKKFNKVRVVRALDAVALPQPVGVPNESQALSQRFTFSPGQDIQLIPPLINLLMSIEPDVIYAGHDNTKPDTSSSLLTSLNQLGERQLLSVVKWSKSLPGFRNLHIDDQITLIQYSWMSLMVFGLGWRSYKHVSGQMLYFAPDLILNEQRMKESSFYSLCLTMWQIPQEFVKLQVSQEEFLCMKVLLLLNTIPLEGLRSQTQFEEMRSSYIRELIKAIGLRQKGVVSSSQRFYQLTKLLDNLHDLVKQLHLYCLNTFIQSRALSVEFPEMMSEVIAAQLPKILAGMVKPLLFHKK
Test: Nuclear hormone receptor binding assay, PR
Description: Cell lysates from human embryonic kidney HEK293 cells overexpressing human GR (glucocorticoid receptor), AR (androgen receptor), MR (mineralocorticoid receptor), or PR (progesterone receptor) are used for receptor-ligand competition binding assays to determine Ki values.
Briefly, steroid receptor competition binding assays are run in a buffer containing 20 mM Hepes buffer (pH=7.6), 0.2 mM EDTA, 75 mM NaCl, 1.5 mM MgCl2, 20% glycerol, 20 mM sodium molybdate, 0.2 mM DTT (dithiothreitol), 20 μg/mL aprotinin and 20 μg/mL leupeptin. Typically, steroid receptor binding assays include radio-labeled ligands, such as 0.3 nM [^3H]-dexamethasone for GR binding, 0.36 nM [^3H]-methyltrienolone for AR binding, 0.25 nM [^3H]-aldosterone for MR binding, and 0.29 nM [^3H]-methyltrienolone for PR binding, and either 20 μg 293-GR lysate, 22 μg 293-AR lysate, 20 μg 293-MR lysate or 40 μg 293-PR lysate per well. Assays are typically run in 96-well format. Competing test compounds are added at various concentrations ranging from about 0.01 nM to 10 μM. Non-specific binding is determined in the presence of 500 nM dexamethasone for GR binding, 500 nM aldosterone for MR binding, or 500 nM methyltrienolone for AR and PR binding. […] After an incubation of 2 hours, plates are read in a Wallac Microbeta counter. […]

Ki (HEK293 cell lysate expressing human PR, [3H]-methyltrienolone, mean of 5 determinations): 31 nM
greater affinity for GR relative to PR (binding selectivity GR vs PR): ≥ 30 fold
Compound: CC/C(=C1\c2ccc(Cl)cc2OCc2ncccc21)c1cccc(NS(C)(=O)=O)c1 [Compound (I), (E)-N-{3-[1-(8-Chloro-11H-10-oxa-1-aza-dibenzo[a,d]cyclohepten-5-ylidene)-propyl]-phenyl}-methanesulfonamide]
